US5399543A, “3-[4-(phenylmethoxy)phenyl]-1-substituted-6-haloalkyl-uracil herbicides” (FMC Corporation, priority 1993, dated 1995)

What was measured:
[1] = test system: Wheat; assay: Preemergence herbicidal activity, wheat; format: in vivo, Triticum aestivum var. Wheaton; details: Triticum aestivum, pre-emergence, 0.3 kg/ha, after 17-21 days, read-out: Preemergence herbicidal activity (% control), Wheat
Method in brief: (§1)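 Preemergence seeds were covered with sand/sandy loam topping soil and sprayed at the soil surface, then watered immediately. Postemergence plants, sown 8-12 days before, were sprayed on foliage and kept dry for 24 h. Both were rated for percent control after 17-21 days.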

[2] = test system: Johnsongrass; assay: Preemergence herbicidal activity, johnsongrass; format: in vivo; details: Sorghum halepense, pre-emergence, 0.3 kg/ha, after 17-21 days, read-out: Preemergence herbicidal activity (% control), Johnsongrass
Method in brief: as §1

[3] = test system: Cocklebur; assay: Preemergence herbicidal activity, cocklebur; format: in vivo, Xanthium pensylvanicum; details: Xanthium strumarium, pre-emergence, 0.3 kg/ha, after 17-21 days, read-out: Preemergence herbicidal activity (% control), Cocklebur
Method in brief: as §1

[4] = test system: Cocklebur; assay: Postemergence herbicidal activity, cocklebur; format: in vivo, Xanthium pensylvanicum; details: Xanthium strumarium, post-emergence, 0.3 kg/ha, after 17-21 days, read-out: Postemergence herbicidal activity (% control), Cocklebur
Method in brief: (§2)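 Greenhouse flat test; compound sprayed in aqueous acetone with sorbitan monolaurate at 1000 L/ha. Percent control assessed at 17-21 days.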

[5] = test system: Soybean; assay: Preemergence herbicidal activity, soybean; format: in vivo, Glycine max var. Williams; details: Glycine max, pre-emergence, 0.3 kg/ha, after 17-21 days, read-out: Preemergence herbicidal activity (% control), Soybean
Method in brief: as §1

[6] = test system: Velvetleaf; assay: Postemergence herbicidal activity, velvetleaf; format: in vivo; details: Abutilon theophrasti, post-emergence, 0.3 kg/ha, after 17-21 days, read-out: Postemergence herbicidal activity (% control), Velvetleaf
Method in brief: as §2

[7] = test system: Soybean; assay: Postemergence herbicidal activity, soybean; format: in vivo, Glycine max var. Williams; details: Glycine max, post-emergence, 0.3 kg/ha, after 17-21 days, read-out: Postemergence herbicidal activity (% control), Soybean
Method in brief: as §2

[8] = test system: Green foxtail; assay: Postemergence herbicidal activity, green foxtail; format: in vivo; details: Setaria viridis, post-emergence, 0.3 kg/ha, after 17-21 days, read-out: Postemergence herbicidal activity (% control), Green foxtail
Method in brief: as §2

[9] = test system: Corn; assay: Preemergence herbicidal activity, corn; format: in vivo, Zea mays var. Agway 425X; details: Zea mays, pre-emergence, 0.3 kg/ha, after 17-21 days, read-out: Preemergence herbicidal activity (% control), Corn
Method in brief: as §1

[10] = test system: Chickweed; assay: Postemergence herbicidal activity, chickweed; format: in vivo; details: Stellaria media, post-emergence, 0.3 kg/ha, after 17-21 days, read-out: Postemergence herbicidal activity (% control), Chickweed
Method in brief: as §2

[11] = test system: Blackgrass; assay: Postemergence herbicidal activity, blackgrass; format: in vivo, Aloepecurus myosuroides; details: Alopecurus myosuroides, post-emergence, 0.3 kg/ha, after 17-21 days, read-out: Postemergence herbicidal activity (% control), Blackgrass
Method in brief: as §2

[12] = test system: Blackgrass; assay: Preemergence herbicidal activity, blackgrass; format: in vivo, Aloepecurus myosuroides; details: Alopecurus myosuroides, pre-emergence, 0.3 kg/ha, after 17-21 days, read-out: Preemergence herbicidal activity (% control), Blackgrass
Method in brief: as §2

[13] = test system: Chickweed; assay: Preemergence herbicidal activity, chickweed; format: in vivo; details: Stellaria media, pre-emergence, 0.3 kg/ha, after 17-21 days, read-out: Preemergence herbicidal activity (% control), Chickweed
Method in brief: as §1

[14] = test system: Johnsongrass; assay: Postemergence herbicidal activity, johnsongrass; format: in vivo; details: Sorghum halepense, post-emergence, 0.3 kg/ha, after 17-21 days, read-out: Postemergence herbicidal activity (% control), Johnsongrass
Method in brief: as §2

[15] = test system: Green foxtail; assay: Preemergence herbicidal activity, green foxtail; format: in vivo; details: Setaria viridis, pre-emergence, 0.3 kg/ha, after 17-21 days, read-out: Preemergence herbicidal activity (% control), Green foxtail
Method in brief: as §1

[16] = test system: Morningglory; assay: Preemergence herbicidal activity, morningglory; format: in vivo, Ipomea lacunosa or Ipomea hederacea; details: Ipomoea, pre-emergence, 0.3 kg/ha, after 17-21 days, read-out: Preemergence herbicidal activity (% control), Morningglory
Method in brief: as §1

[17] = test system: Velvetleaf; assay: Preemergence herbicidal activity, velvetleaf; format: in vivo; details: Abutilon theophrasti, pre-emergence, 0.3 kg/ha, after 17-21 days, read-out: Preemergence herbicidal activity (% control), Velvetleaf
Method in brief: as §1

[18] = test system: Wheat; assay: Postemergence herbicidal activity, wheat; format: in vivo, Triticum aestivum var. Wheaton; details: Triticum aestivum, post-emergence, 0.3 kg/ha, after 17-21 days, read-out: Postemergence herbicidal activity (% control), Wheat
Method in brief: as §2

[19] = test system: Corn; assay: Postemergence herbicidal activity, corn; format: in vivo, Zea mays var. Agway 425X; details: Zea mays, post-emergence, 0.3 kg/ha, after 17-21 days, read-out: Postemergence herbicidal activity (% control), Corn
Method in brief: as §2

[20] = test system: Morningglory; assay: Postemergence herbicidal activity, morningglory; format: in vivo, Ipomea lacunosa or Ipomea hederacea; details: Ipomoea, post-emergence, 0.3 kg/ha, after 17-21 days, read-out: Postemergence herbicidal activity (% control), Morningglory
Method in brief: as §2

## Cn1c(C(F)(F)F)cc(=O)n(-c2ccc(OCc3cc(Cl)cc(Cl)c3)cc2)c1=O [Compound 43]
[1]
  activity at 300 g/ha: 0%
[2]
  activity at 300 g/ha: 0%
[3]
  activity at 300 g/ha: 0%
[4]
  activity at 300 g/ha: 0%
[5]
  activity at 300 g/ha: 0%
[6]
  activity at 300 g/ha: 0%
[7]
  activity at 300 g/ha: 10%
[8]
  activity at 300 g/ha: 0%
[9]
  activity at 300 g/ha: 0%
[10]
  activity at 300 g/ha: 0%
[11]
  activity at 300 g/ha: 0%
[12]
  activity at 300 g/ha: 0%
[13]
  activity at 300 g/ha: 0%
[14]
  activity at 300 g/ha: 30%
[15]
  activity at 300 g/ha: 0%
[16]
  activity at 300 g/ha: 0%
[17]
  activity at 300 g/ha: 0%
[18]
  activity at 300 g/ha: 0%
[19]
  activity at 300 g/ha: 30%
[20]
  activity at 300 g/ha: 10%

## COc1ccc(COc2ccc(-n3c(=O)cc(C(F)(F)F)n(C)c3=O)cc2)cc1 [Compound 44]
[1]
  activity at 300 g/ha: 10%
[2]
  activity at 300 g/ha: 10%
[3]
  activity at 300 g/ha: 25%
[4]
  activity at 300 g/ha: 50%
[5]
  activity at 300 g/ha: 40%
[6]
  activity at 300 g/ha: 40%
[7]
  activity at 300 g/ha: 40%
[8]
  activity at 300 g/ha: 70%
[9]
  activity at 300 g/ha: 0%
[10]
  activity at 300 g/ha: 20%
[11]
  activity at 300 g/ha: 50%
[12]
  activity at 300 g/ha: 20%
[13]
  activity at 300 g/ha: 20%
[14]
  activity at 300 g/ha: 50%
[15]
  activity at 300 g/ha: 60%
[16]
  activity at 300 g/ha: 100%
[17]
  activity at 300 g/ha: 100%
[18]
  activity at 300 g/ha: 10%
[19]
  activity at 300 g/ha: 30%
[20]
  activity at 300 g/ha: 90%
